The results in this text go back to patent US20090312407A1, “Synthetic Flavonoids and Pharmaceutical Compositions and Therapeutic Methods of Treatment of Cancer and other Pathologies” (priority 2007, published 2009).

Molecules are shown by their SMILES. Several values for one entry are separate records, joined by “and”; a condition that tells them apart may be missing. Identical values can stand only once. Entries after “also recorded” stand apart in the source; their conditions may differ. Like-named read-outs stand apart in the source and are kept apart here.

Assay type in all cases: cell-based
One data set concerns MCF-7 cells. Kind of data set: Cytotoxicity on MCF-7 cells. The following applies: for % Inhibition / inhibition at 1 µg/mL / inhibition at 5 µg/mL / inhibition at 10 µg/mL / inhibition at 50 µg/mL: vs 2% DMSO, Table 6; for inhibition at 1 µg/mL / inhibition at 5 µg/mL / inhibition at 10 µg/mL / inhibition at 50 µg/mL: Homo sapiens; for inhibition at 1 µg/mL: MCF7, 1 μg/ml; for inhibition at 5 µg/mL: MCF7, 5 μg/ml; for inhibition at 10 µg/mL: MCF7, 10 μg/ml; for inhibition at 50 µg/mL: MCF7, 50 μg/ml; for inhibitory activity / growth inhibition compared to AZT: MCF-7 cells, same conditions as AZT; for cytotoxic activities on MCF-7 cells: different drug concentrations.

The next data set has as its system H-9 cells. Put plainly: Cytotoxicity on H-9 cells. The following applies: for Cells (×10^4) Mean / Cells (×10^4): Table 3, 12-05 to 12-09/2005; for % Inhibition / inhibition at 1 µg/mL / inhibition at 5 µg/mL / inhibition at 10 µg/mL / inhibition at 50 µg/mL: vs 2% DMSO, Table 3; for inhibitory activity / growth inhibition compared to AZT: H-9 cells, same conditions as AZT; for inhibition at 1 µg/mL / inhibition at 5 µg/mL / inhibition at 10 µg/mL / inhibition at 50 µg/mL: Homo sapiens; for inhibition at 1 µg/mL: H9, 1 μg/ml; for inhibition at 5 µg/mL: H9, 5 μg/ml; for inhibition at 10 µg/mL: H9, 10 μg/ml; for inhibition at 50 µg/mL: H9, 50 μg/ml. From the text: (§1) The purified and identified analogs were subjected to in vitro biological testing.
These three congeners were further evaluated in H9 and PC3 cells. AZT was employed as a positive control in all of these experiments.

A further data set concerns PC-3 cells. Put plainly: Cytotoxicity on PC-3 cells. The following applies: for inhibitory activity / growth inhibition compared to AZT: PC-3 cells, same conditions as AZT.
Description: as §1

Setting [1] is: 1 μg/ml, Table 6, 11-14 to 11-18/2005.
The mark [2] stands for this setting: 1 μg/ml, single count, Table 6, 11-14 to 11-18/2005.
Where [3] appears, read: 5 μg/ml, Table 6, 11-14 to 11-18/2005.
[4] abbreviates: 5 μg/ml, single count, Table 6, 11-14 to 11-18/2005.
Setting [5] is: 10 μg/ml, Table 6, 11-14 to 11-18/2005.
The mark [6] stands for this setting: 10 μg/ml, single count, Table 6, 11-14 to 11-18/2005.
[7] abbreviates: 50 μg/ml, Table 6, 11-14 to 11-18/2005.
[8] abbreviates: 50 μg/ml, single count, Table 6, 11-14 to 11-18/2005.
Where [9] appears, read: single count, read-out: % Inhibition.

Turning to `COc1ccc(C=CC(=O)c2cc(Br)cc(Br)c2O)cc1OC` (stereo in doubt) [CHBr 2M], the “Cells (×10^4) Mean” value in the data set on MCF-7 cells (setting [1]) is reported as 49.08 ×10^4; with MCF-7 cells (setting [3]), 26.25 ×10^4; in the data set on MCF-7 cells (setting [5]) it was 7.92 ×10^4; with MCF-7 cells (setting [7]), 0.75 ×10^4; in the data set on H-9 cells (1 μg/ml), 47.42 ×10^4; in the data set with H-9 cells (5 μg/ml), 25.33 ×10^4. Further, the “Cells (×10^4) Mean” value with H-9 cells (10 μg/ml) is 17.58 ×10^4; in the data set on H-9 cells (50 μg/ml) it was 11.58 ×10^4. For the same compound, the “% Inhibition” value with MCF-7 cells (1 μg/ml, single count) is 10.95% and 18.73%; in the data set on MCF-7 cells (5 μg/ml, single count), 56.34% and 54.18%; in the data set on MCF-7 cells (10 μg/ml, single count), 84.44% and 87.03%; in the data set with MCF-7 cells (50 μg/ml, single count), 98.27% and 99.14%; with H-9 cells (1 μg/ml, single count) it was 9.45% and 1.49% and 5.97%; with H-9 cells (5 μg/ml, single count) it was 50.75% and 48.76%. Further, the “% Inhibition” value in the data set on H-9 cells (10 μg/ml, single count) came to 67.68%; with H-9 cells (50 μg/ml, single count), 77.11%. Besides, the “Cells (×10^4)” value with MCF-7 cells (setting [2]) is 48.8 ×10^4 and 51.5 ×10^4 and 47.0 ×10^4; in the data set on MCF-7 cells (setting [4]), 27.0 ×10^4 and 25.3 ×10^4 and 26.5 ×10^4; with MCF-7 cells (setting [6]) it was 7.3 ×10^4 and 9.0 ×10^4 and 7.5 ×10^4; in the data set with MCF-7 cells (setting [8]), 0.8 ×10^4 and 1.0 ×10^4 and 0.5 ×10^4; in the data set on H-9 cells (1 μg/ml, single count) it was 45.5 ×10^4 and 49.5 ×10^4 and 47.3 ×10^4; with H-9 cells (5 μg/ml, single count) it was 25.5 ×10^4 and 24.8 ×10^4 and 25.8 ×10^4. In addition, the “Cells (×10^4)” value in the data set on H-9 cells (10 μg/ml, single count) was 18.3 ×10^4 and 16.3 ×10^4; in the data set on H-9 cells (50 μg/ml, single count), 11.8 ×10^4 and 11.5 ×10^4. Moreover, the inhibition at 1 µg/mL amounted to 15.7% in the data set on MCF-7 cells (setting [9]), 15.1% in the data set on MCF-7 cells (read-out: % Inhibition Mean) and 5.64% with H-9 cells (read-out: % Inhibition Mean). The inhibition at 5 µg/mL in the data set on MCF-7 cells (setting [9]) came out at 53.3%; in the data set on MCF-7 cells (read-out: % Inhibition Mean), 54.6%; in the data set with H-9 cells (setting [9]), 49.2%; in the data set with H-9 cells (read-out: % Inhibition Mean) it was 49.6%. Also, the inhibition at 10 µg/mL in the data set on MCF-7 cells (setting [9]) is 87.5%; with MCF-7 cells (read-out: % Inhibition Mean), 86.3%; in the data set on H-9 cells (setting [9]), 63.7%; in the data set with H-9 cells (read-out: % Inhibition Mean), 65%. Further, the inhibition at 50 µg/mL in the data set with MCF-7 cells (setting [9]) is 98.7%; in the data set on MCF-7 cells (read-out: % Inhibition Mean), 98.7%; with H-9 cells (setting [9]), 76.6%; with H-9 cells (read-out: % Inhibition Mean), 77%. Also, the “inhibitory activity / growth inhibition compared to AZT” value in the data set on MCF-7 cells, in the data set on H-9 cells and with PC-3 cells was “much superior; also recorded: as good or somewhat better” in each case. Also, in the data set with MCF-7 cells, the “cytotoxic activities on MCF-7 cells” value is “good cytotoxic activities”.
As to `COc1ccc(C=CC(=O)c2cc(Cl)cc(Cl)c2O)cc1OC` (stereo in doubt) [CHCl 2M], the “Cells (×10^4) Mean” value is reported as 49.42 ×10^4 in the data set on MCF-7 cells (setting [1]); 32.33 ×10^4 in the data set with MCF-7 cells (setting [3]); 10.42 ×10^4 in the data set on MCF-7 cells (setting [5]); 0.75 ×10^4 in the data set on MCF-7 cells (setting [7]); 42.25 ×10^4 with H-9 cells (1 μg/ml); 24.00 ×10^4 with H-9 cells (5 μg/ml). Also, the “Cells (×10^4) Mean” value was 12.92 ×10^4 with H-9 cells (10 μg/ml) and 4.50 ×10^4 in the data set with H-9 cells (50 μg/ml). Besides, the “% Inhibition” value with MCF-7 cells (1 μg/ml, single count) is 16.14% and 13.54%; with MCF-7 cells (5 μg/ml, single count) it was 45.53% and 42.07%; with MCF-7 cells (10 μg/ml, single count) it was 81.41% and 81.84%; with MCF-7 cells (50 μg/ml, single count) it was 99.14%; with H-9 cells (1 μg/ml, single count), 15.42%; in the data set on H-9 cells (5 μg/ml, single count), 52.74% and 51.74%. Besides, the “% Inhibition” value in the data set with H-9 cells (10 μg/ml, single count) is 77.11% and 71.64%; in the data set on H-9 cells (50 μg/ml, single count), 90.05%. The “Cells (×10^4)” value in the data set on MCF-7 cells (setting [2]) is 49.8 ×10^4 and 48.5 ×10^4 and 50.0 ×10^4; with MCF-7 cells (setting [4]) it was 32.0 ×10^4 and 31.5 ×10^4 and 33.5 ×10^4; with MCF-7 cells (setting [6]) it was 10.0 ×10^4 and 10.8 ×10^4 and 10.5 ×10^4; in the data set with MCF-7 cells (setting [8]), 1.0 ×10^4 and 0.5 ×10^4 and 0.8 ×10^4; in the data set on H-9 cells (1 μg/ml, single count) it was 42.0 ×10^4 and 42.3 ×10^4 and 42.5 ×10^4; in the data set with H-9 cells (5 μg/ml, single count), 24.0 ×10^4 and 23.8 ×10^4 and 24.3 ×10^4. The “Cells (×10^4)” value with H-9 cells (10 μg/ml, single count) was 13.0 ×10^4 and 11.5 ×10^4 and 14.3 ×10^4; in the data set on H-9 cells (50 μg/ml, single count) it was 4.0 ×10^4 and 4.5 ×10^4 and 5.0 ×10^4. For the same compound, the inhibition at 1 µg/mL turned out to be 14% with MCF-7 cells (setting [9]), 14.6% in the data set with MCF-7 cells (read-out: % Inhibition Mean), 16.4% in the data set with H-9 cells (setting [9]) and 15.9% in the data set with H-9 cells (read-out: % Inhibition Mean). In addition, the inhibition at 5 µg/mL in the data set with MCF-7 cells (setting [9]) came to 44.7%; in the data set with MCF-7 cells (read-out: % Inhibition Mean), 44.1%; in the data set on H-9 cells (setting [9]) it was 52.2%; in the data set on H-9 cells (read-out: % Inhibition Mean), 52.2%. In addition, the inhibition at 10 µg/mL is 82.7% with MCF-7 cells (setting [9]), 82% with MCF-7 cells (read-out: % Inhibition Mean), 74.1% in the data set on H-9 cells (setting [9]) and 74.3% in the data set on H-9 cells (read-out: % Inhibition Mean). Moreover, the inhibition at 50 µg/mL with MCF-7 cells (setting [9]) was determined as 98.3%; in the data set on MCF-7 cells (read-out: % Inhibition Mean), 98.7%; in the data set on H-9 cells (setting [9]), 92%; in the data set with H-9 cells (read-out: % Inhibition Mean), 91%. In addition, the “inhibitory activity / growth inhibition compared to AZT” value in the data set with MCF-7 cells (listed as CHCI2M), with H-9 cells (listed as CHCI2M) and with PC-3 cells (listed as CHCI2M) was “much superior; also recorded: as good or somewhat better” throughout. Besides, the “cytotoxic activities on MCF-7 cells” value with MCF-7 cells is reported as “good cytotoxic activities”.
As for `Cc1cn([C@H]2C[C@H](N=[N+]=[N-])[C@@H](CO)O2)c(=O)[nH]c1=O` [AZT, reference compound], the “Cells (×10^4) Mean” value in the data set with MCF-7 cells (1 μg/ml, Table 12, 9-12 to 9-16/2005) was 45.25 ×10^4; in the data set with MCF-7 cells (5 μg/ml, Table 12, 9-12 to 9-16/2005) it was 28.58 ×10^4; with MCF-7 cells (10 μg/ml, Table 12, 9-12 to 9-16/2005), 20.17 ×10^4; in the data set on PC-3 cells (5 μg/ml, Table 7, 11-11 to 11-17/2005) it was 71.33 ×10^4. For the same compound, the “Cells (×10^4)” value in the data set on MCF-7 cells (1 μg/ml, single count, Table 12, 9-12 to 9-16/2005) was 46.0 ×10^4 and 45.3 ×10^4 and 44.5 ×10^4; in the data set with MCF-7 cells (5 μg/ml, single count, Table 12, 9-12 to 9-16/2005) it was 27.8 ×10^4 and 28.0 ×10^4; in the data set with MCF-7 cells (10 μg/ml, single count, Table 12, 9-12 to 9-16/2005), 17.5 ×10^4 and 21.5 ×10^4. For the same compound, the “% Inhibition” value with PC-3 cells (10 μg/ml, single count, vs 2% DMSO, Table 7) is recorded as 38.73%.
As for `COc1cc(C=CC(=O)c2cc(Cl)cc(Cl)c2O)cc(OC)c1OC` [CHCl 3M], in the data set with MCF-7 cells (5 μg/ml, single count, Table 17, 12-12 to 12-16/2005), the “Cells (×10^4)” value is recorded as 53.0 ×10^4.

The term % Inhibition denotes the relative decrease from the control value, in per cent. A word on the inhibition: it is the percentage by which the read-out fell short of the control.
